Measured values reported in US11834698B2, “Process for determining enzyme activity in a cell by activity-based reporter gene technology (ABRGT)” (INDIAN INSTITUTE OF SCIENCE EDUCATION AND RESEARCH, priority 2018, dated 2023).
Peptide text beside a SMILES is read from it. * marks the point of attachment. Cbz = O=C(OCc1ccccc1)*; CH2F = FC*

Columns and labels:
caspase-9 GFPspark = target: T1, caspase-9 GFPspark (Homo sapiens, UniProt P55211); test: AbRGT FRET imaging / acceptor photobleaching, caspase-9 GFPspark in MCF-7 cells; type: cell-based
T1 construct: host or cells: MCF-7, HEK-293
T1 sequence (P55211 1-416): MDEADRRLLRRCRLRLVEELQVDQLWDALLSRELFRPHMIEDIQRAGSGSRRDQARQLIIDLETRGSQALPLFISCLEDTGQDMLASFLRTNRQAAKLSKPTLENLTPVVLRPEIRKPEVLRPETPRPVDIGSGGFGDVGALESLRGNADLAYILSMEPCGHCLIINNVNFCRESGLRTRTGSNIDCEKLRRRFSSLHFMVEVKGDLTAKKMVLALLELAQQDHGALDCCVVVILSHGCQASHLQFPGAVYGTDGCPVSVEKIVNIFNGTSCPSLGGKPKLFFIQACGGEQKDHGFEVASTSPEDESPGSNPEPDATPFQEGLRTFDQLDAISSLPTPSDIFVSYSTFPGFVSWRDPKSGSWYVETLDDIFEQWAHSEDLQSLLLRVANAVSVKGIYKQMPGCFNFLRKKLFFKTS
Experimental: FIG. 15 depicts confocal images of MCF-7 cells in GFP, FRET and Rh channel Caspase-7 GFPspark transfected MCF-7 cells were treated with STS (1 μM) for 6 h and labelled (a) (i) with probe 1 (1 μM) probe. Cells were pre-treated with (a) (ii) Z-VAD-FMK (50 μM) or (a) (iii) Q-VD-OPh (50 μM) pan-caspase inhibitors 1 h before the probe labelling. Caspase-9 GFPspark transfected MCF-7 cells were treated with STS (1 μM) for 4 h and labelled (b) (i) with probe 1 (1 μM) probe. Cells were pre-treated with (b) (ii) Z-VAD-FMK (50 μM) 1 h before probe labelling. Caspase-8 GFPspark overexpressing HEK-293 cells were treated with TRAIL (1 μg/ml) for 5 h and labelled (c) (i) with the probe 1. Cells were pre-treated with (c) (ii) Z-VAD-FMK (50 μM) 1 h before probe labelling.
FIG. 16 depicts specific detection of caspase-9 GFPspark in MCF-7 cells. Casp-9 GFPspark (1 μg) transfected MCF-7 cells were treated with STS (1 μM) for 4 h and labelled with the probe 1 (1 μM). Cells were fixed and the fluorescence signal was collected in GFP, FRET and Rh channels. The acceptor photobleaching experiment was carried out to confirm the FRET signal as described previously. Bar graph representing a rise in GFP intensity in ROI after rhodamine photobleaching was 63 a.u. as compared to the unbleached background, i.e., 8 a.u. FRET efficiency was calculated to be 30±1%.
(§1) Plasmids and transient transfection: GFPspark tagged plasmids; caspase-3 GFPspark tag (Cat: HG10050-ACG), caspase-7 GFPspark tag (HG10049-ACG), caspase-8 GFPspark (HG10078-ACG), caspase-9 GFPspark (HG11151-ACG) and cathepsin B GFPspark (HG10483-ACG) were procured from Sino Biological. For transfection, cells were seeded in a 6-well plate at a density of 0.4 million cells/well. At 60-70% confluency, cells were transiently transfected for 24 h at 37° C. with 1 μg of the GFPspark tagged plasmid DNA construct mixed with 5 μL of Lipofectamine 2000 (Invitrogen) according to the manufacturer's instructions. 24 h post-transfection, cells were visualized under the GFP filter for GFPspark expression under fluorescence microscope at 10× magnification.
Labelling of active caspases in apoptotic cells with FABP: After 24 h of transfection, cells were treated with STS (1 μM) drug or TRAIL (1 μg/ml) for apoptotic induction and incubated for 2, 4, 6 and 8 h at 37° C. in a humidified atmosphere of 5% CO2/95% air. Cells were gently scraped off from the surface at the end of apoptotic induction and centrifuged at 3000 rpm for 5 min. […] Slides were then imaged for GFP, FRET and rhodamine fluorescence signals under confocal microscopy. […]
Fluorescence imaging studies, FRET procedure: Images were collected on Zeiss LSM710 confocal microscope with 25 mW argon laser using Zen10 software. […]

cathepsin B GFPspark = target: T2, cathepsin B GFPspark (Homo sapiens, UniProt P07858); test: AbRGT FRET imaging / acceptor photobleaching, cathepsin B GFPspark in HEK-293 cells; type: cell-based
T2 construct: GFPspark (C); host or cells: HEK-293
Experimental: FIG. 20 depicts confocal images of HEK-293 cells in GFP, FRET and Rh channel Cathepsin B GFPspark transfected HEK-293 cells were treated with STS (1 μM) for 4 h and labelled (a) (i) with or (a) (iv) without probe 1. Cells were pre-treated with (a) (ii) Z-VAD-FMK (50 μM) or (a) (iii) E-64 (50 μM) inhibitor 1 h before the probe 1 labelling. (b) Quantification of the change in GFPS fluorescence intensity after rhodamine photobleaching in both unbleached control region and rhodamine bleached region (ROI), using acceptor photo-bleaching method. Error bar represents the s.e.m for n=10 cells (*P<0.00001). Scale bar, 10 μm. a.u., arbitrary units.
as §1
Labelling of active caspases in apoptotic cells with FABP: After 24 h of transfection, cells were treated with STS (1 μM) drug or TRAIL (1 μg/ml) for apoptotic induction and incubated for 2, 4, 6 and 8 h at 37° C. in a humidified atmosphere of 5% CO2/95% air. Cells were gently scraped off from the surface at the end of apoptotic induction and centrifuged at 3000 rpm for 5 min. The cell pellet was resuspended in 300 μL of fresh DMEM containing 1 μM of probe for probe 2 and incubated for additional 2 h at 37° C. in a humidified atmosphere of 5% CO2. Cells were again centrifuged at 3000 rpm for 5 mins, and the supernatant was decanted. Cells were washed with 1×PBS, thrice finally resuspended in 20 μL of 1×PBS. The cell suspension was put on a slide, and a coverslip was placed over it. It was left for air drying. Slides were then imaged for GFP, FRET and rhodamine fluorescence signals under confocal microscopy.
Inhibitor assay: Cells were pre-treated with 50 μM of Z-VAD-FMK or Q-VD-OPh or E-64 inhibitor 1 h before probe 1 labelling and incubated for 1 h at 37° C. in a humidified atmosphere of 5% CO2. Cells were gently scraped off from the surface at the end of inhibitor treatment and centrifuged at 3000 rpm for 5 min Cells were then labelled with the probe 1 as described in the previous section.
Fluorescence imaging studies, FRET procedure: Images were collected on Zeiss LSM710 confocal microscope with 25 mW argon laser using Zen10 software. The laser was tuned to lines at 488 nm (excitation laser for GFPspark) and 561 nm (excitation laser for rhodamine) Cells were examined with a 40× 1.3 NA Zeiss oil immersion objective and 2.4× zoom. Images were collected in the three channels; GFP channel, argon laser tuned at 488 nm with 2% laser intensity and fluorescence emission was collected in emission range of 490-550 nm; rhodamine channel, argon laser tuned to 561 nm laser with 2% laser intensity and fluorescence emission was collected in range 550-650 nm and FRET channel with excitation laser of GFPSPARK channel and emission range of rhodamine channel. […]

[1] = MCF-7, inhibitor 50 μM, STS 4 h
[2] = HEK-293, inhibitor 50 μM 1 h before probe 1 labelling, STS 4 h
[3] = MCF-7, STS 1 μM 4 h, probe 1 μM

`COC(=O)C[C@H](NC(=O)[C@H](C)NC(=O)[C@@H](NC(=O)OCc1ccccc1)C(C)C)C(=O)CF` [Z-VAD-FMK] (Cbz-Val-Ala-Asp(OMe)-CH2F) was tested, and the “effect of inhibitor on signal in FRET channel” value (caspase-9 GFPspark; [1]) was “completely abolished”, the “effect of inhibitor on signal in Rh channel” value (caspase-9 GFPspark; [1]) was “completely abolished” and the “effect of inhibitor on FRET signal” value (cathepsin B GFPspark; [2]) was “completely abolished”. The “signal in Rh channel in presence of inhibitor” value (cathepsin B GFPspark; [2]) was “less intense fluorescence signal was still retained”.
For “Rhodamine-VAD-fluoromethyl ketone [probe 1]”, the “calculated FRET efficiency” value (caspase-9 GFPspark; [3]) was 30±1%, the “rise in GFP intensity in ROI after rhodamine photobleaching” value (caspase-9 GFPspark; [3]) was 63 a.u and the FRET efficiency (cathepsin B GFPspark; HEK-293, STS 1 μM 4 h, probe 1 μM 2 h, n=10 cells) was 37±1%.
